Results taken from patent publication US9790210B2, “N-(monocyclic aryl),N'-pyrazolyl-urea, thiourea, guanidine and cyanoguanidine compounds as TrkA kinase inhibitors” (Array BioPharma Inc., priority 2012, dated 2017).

How the values were obtained:
Assay in all cases: KinaseProfiler
Assay type in all cases: biochemical
Details in all cases: 10 μM, ATP near Km
Tie2 = biological target: T1, Tie2 (Homo sapiens, UniProt Q02763)
T1 construct: purchased Millipore, Inc. (KinaseProfiler service)
Protocol: (§1) A representative compound (Example 15) of the invention was tested for off-target kinase activity at a concentration of 10 μM by Millipore, Inc. in their KinaseProfiler™ service against all the kinases available in their full kinase panel. The compound was run in duplicate at a concentration of ATP near the Km for each individual kinase according to Millipore's specifications. The results are shown in Table B. Data are reported as percent of control (POC) and are the average of the two replicates.

Txk = biological target: T2, Txk (Homo sapiens, UniProt P42681)
T2 construct: purchased Millipore, Inc. (KinaseProfiler service)
Protocol: as §1

Pim-3 = biological target: T3, Pim-3 (Homo sapiens, UniProt Q86V86)
T3 construct: purchased Millipore, Inc. (KinaseProfiler service)
Protocol: as §1

Rse = biological target: T4, Rse (Homo sapiens, UniProt Q06418)
T4 construct: purchased Millipore, Inc. (KinaseProfiler service)
Protocol: as §1

EphA3 = biological target: T5, EphA3 (Homo sapiens, UniProt P29320)
T5 construct: purchased Millipore, Inc. (KinaseProfiler service)
Protocol: as §1

CK1gamma2 = biological target: T6, CK1gamma2 (Homo sapiens, UniProt P78368)
T6 construct: purchased Millipore, Inc. (KinaseProfiler service)
Protocol: as §1

MKK7beta = biological target: T7, MKK7beta (Homo sapiens, UniProt O14733)
T7 construct: purchased Millipore, Inc. (KinaseProfiler service)
Protocol: as §1

HIPK1 = biological target: T8, HIPK1 (Homo sapiens, UniProt Q86Z02)
T8 construct: purchased Millipore, Inc. (KinaseProfiler service)
Protocol: as §1

EphB4 = biological target: T9, EphB4 (Homo sapiens, UniProt P54760)
T9 construct: purchased Millipore, Inc. (KinaseProfiler service)
Protocol: as §1

TBK1 = biological target: T10, TBK1 (Homo sapiens, UniProt Q9UHD2)
T10 construct: purchased Millipore, Inc. (KinaseProfiler service)
Protocol: as §1

p38alpha = biological target: T11, p38alpha (Homo sapiens, UniProt Q16539)
T11 construct: purchased Millipore, Inc. (KinaseProfiler service)
Protocol: as §1

JNK3 = biological target: T12, JNK3 (Homo sapiens, UniProt P53779)
T12 construct: purchased Millipore, Inc. (KinaseProfiler service)
Protocol: as §1

MAPKAP-K5 = biological target: T13, MAPKAP-K5 (Homo sapiens, UniProt Q8IW41)
T13 construct: purchased Millipore, Inc. (KinaseProfiler service)
Protocol: as §1

TAO1 = biological target: T14, TAO1 (Homo sapiens, UniProt Q7L7X3)
T14 construct: purchased Millipore, Inc. (KinaseProfiler service)
Protocol: as §1

FGFR1 = biological target: T15, FGFR1 (Homo sapiens, UniProt P11362)
T15 construct: purchased Millipore, Inc. (KinaseProfiler service)
Protocol: as §1

MST3 = biological target: T16, MST3 (Homo sapiens, UniProt Q9Y6E0)
T16 construct: purchased Millipore, Inc. (KinaseProfiler service)
Protocol: as §1

TLK2 = biological target: T17, TLK2 (Homo sapiens, UniProt Q86UE8)
T17 construct: purchased Millipore, Inc. (KinaseProfiler service)
Protocol: as §1

PASK = biological target: T18, PASK (Homo sapiens, UniProt Q96RG2)
T18 construct: purchased Millipore, Inc. (KinaseProfiler service)
Protocol: as §1

PKCepsilon = biological target: T19, PKCepsilon (Homo sapiens, UniProt Q02156)
T19 construct: purchased Millipore, Inc. (KinaseProfiler service)
Protocol: as §1

PKCiota = biological target: T20, PKCiota (Homo sapiens, UniProt P41743)
T20 construct: purchased Millipore, Inc. (KinaseProfiler service)
Protocol: as §1

IRAK4 = biological target: T21, IRAK4 (Homo sapiens, UniProt Q9NWZ3)
T21 construct: purchased Millipore, Inc. (KinaseProfiler service)
Protocol: as §1

Fgr = biological target: T22, Fgr (Homo sapiens, UniProt P09769)
T22 construct: purchased Millipore, Inc. (KinaseProfiler service)
Protocol: as §1

DAPK3 = biological target: T23, DAPK3 (Homo sapiens, UniProt O43293)
T23 construct: purchased Millipore, Inc. (KinaseProfiler service)
Protocol: as §1

WNK3 = biological target: T24, WNK3 (Homo sapiens, UniProt Q9BYP7)
T24 construct: purchased Millipore, Inc. (KinaseProfiler service)
Protocol: as §1

CDK7/cyclinH/MAT1 = biological target: T25, CDK7/cyclinH/MAT1 (Homo sapiens, UniProt P50613)
T25 construct: purchased Millipore, Inc. (KinaseProfiler service)
Protocol: as §1

JNK2alpha2 = biological target: T26, JNK2alpha2 (Homo sapiens, UniProt P45984)
T26 construct: purchased Millipore, Inc. (KinaseProfiler service)
Protocol: as §1

Flt3 = biological target: T27, Flt3 (Homo sapiens, UniProt P36888)
T27 construct: purchased Millipore, Inc. (KinaseProfiler service)
Protocol: as §1

CAMK1d = biological target: T28, CAMK1d (Homo sapiens, UniProt Q8IU85)
T28 construct: purchased Millipore (KinaseProfiler service)
Protocol: as §1

Rsk3 = biological target: T29, Rsk3 (Homo sapiens, UniProt Q15349)
T29 construct: purchased Millipore, Inc. (KinaseProfiler service)
Protocol: as §1

PTK6 = biological target: T30, PTK6 (Homo sapiens, UniProt Q13882)
T30 construct: purchased Millipore, Inc. (KinaseProfiler service)
Protocol: as §1

Met = biological target: T31, Met (Homo sapiens, UniProt P08581)
T31 construct: purchased Millipore, Inc. (KinaseProfiler service)
Protocol: as §1

Plk1 = biological target: T32, Plk1 (Homo sapiens, UniProt P53350)
T32 construct: purchased Millipore, Inc. (KinaseProfiler service)
Protocol: as §1

Lyn = biological target: T33, Lyn (Homo sapiens, UniProt P07948)
T33 construct: purchased Millipore, Inc. (KinaseProfiler service)
Protocol: as §1

PRKG1alpha = biological target: T34, PRKG1alpha (Homo sapiens, UniProt Q13976)
T34 construct: purchased Millipore, Inc. (KinaseProfiler service)
Protocol: as §1

Hck = biological target: T35, Hck (Homo sapiens, UniProt P08631)
T35 construct: purchased Millipore, Inc. (KinaseProfiler service)
Protocol: as §1

NEK6 = biological target: T36, NEK6 (Homo sapiens, UniProt Q9HC98)
T36 construct: purchased Millipore, Inc. (KinaseProfiler service)
Protocol: as §1

EphA5 = biological target: T37, EphA5 (Homo sapiens, UniProt P54756)
T37 construct: purchased Millipore, Inc. (KinaseProfiler service)
Protocol: as §1

PrKX = biological target: T38, PrKX (Homo sapiens, UniProt P51817)
T38 construct: purchased Millipore, Inc. (KinaseProfiler service)
Protocol: as §1

CK1delta = biological target: T39, CK1delta (Homo sapiens, UniProt P48730)
T39 construct: purchased Millipore, Inc. (KinaseProfiler service)
Protocol: as §1

PKCbetaII = biological target: T40, PKCbetaII (Homo sapiens, UniProt P05771)
T40 construct: purchased Millipore, Inc. (KinaseProfiler service)
Protocol: as §1

eEF-2K = biological target: T41, eEF-2K (Homo sapiens, UniProt O00418)
T41 construct: purchased Millipore, Inc. (KinaseProfiler service)
Protocol: as §1

T16 sequence (Q9Y6E0 whole entry): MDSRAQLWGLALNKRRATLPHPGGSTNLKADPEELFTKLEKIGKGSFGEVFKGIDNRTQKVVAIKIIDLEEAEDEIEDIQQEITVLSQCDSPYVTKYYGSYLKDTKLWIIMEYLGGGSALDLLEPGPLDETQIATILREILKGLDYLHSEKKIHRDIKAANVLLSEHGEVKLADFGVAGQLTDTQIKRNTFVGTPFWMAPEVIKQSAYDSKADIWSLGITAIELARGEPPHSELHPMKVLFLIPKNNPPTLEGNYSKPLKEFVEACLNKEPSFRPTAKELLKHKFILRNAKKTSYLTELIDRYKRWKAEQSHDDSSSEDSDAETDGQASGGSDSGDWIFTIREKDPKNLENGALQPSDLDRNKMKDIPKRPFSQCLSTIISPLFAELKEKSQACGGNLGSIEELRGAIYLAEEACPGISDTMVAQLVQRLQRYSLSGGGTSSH
T9 sequence (P54760 16-987): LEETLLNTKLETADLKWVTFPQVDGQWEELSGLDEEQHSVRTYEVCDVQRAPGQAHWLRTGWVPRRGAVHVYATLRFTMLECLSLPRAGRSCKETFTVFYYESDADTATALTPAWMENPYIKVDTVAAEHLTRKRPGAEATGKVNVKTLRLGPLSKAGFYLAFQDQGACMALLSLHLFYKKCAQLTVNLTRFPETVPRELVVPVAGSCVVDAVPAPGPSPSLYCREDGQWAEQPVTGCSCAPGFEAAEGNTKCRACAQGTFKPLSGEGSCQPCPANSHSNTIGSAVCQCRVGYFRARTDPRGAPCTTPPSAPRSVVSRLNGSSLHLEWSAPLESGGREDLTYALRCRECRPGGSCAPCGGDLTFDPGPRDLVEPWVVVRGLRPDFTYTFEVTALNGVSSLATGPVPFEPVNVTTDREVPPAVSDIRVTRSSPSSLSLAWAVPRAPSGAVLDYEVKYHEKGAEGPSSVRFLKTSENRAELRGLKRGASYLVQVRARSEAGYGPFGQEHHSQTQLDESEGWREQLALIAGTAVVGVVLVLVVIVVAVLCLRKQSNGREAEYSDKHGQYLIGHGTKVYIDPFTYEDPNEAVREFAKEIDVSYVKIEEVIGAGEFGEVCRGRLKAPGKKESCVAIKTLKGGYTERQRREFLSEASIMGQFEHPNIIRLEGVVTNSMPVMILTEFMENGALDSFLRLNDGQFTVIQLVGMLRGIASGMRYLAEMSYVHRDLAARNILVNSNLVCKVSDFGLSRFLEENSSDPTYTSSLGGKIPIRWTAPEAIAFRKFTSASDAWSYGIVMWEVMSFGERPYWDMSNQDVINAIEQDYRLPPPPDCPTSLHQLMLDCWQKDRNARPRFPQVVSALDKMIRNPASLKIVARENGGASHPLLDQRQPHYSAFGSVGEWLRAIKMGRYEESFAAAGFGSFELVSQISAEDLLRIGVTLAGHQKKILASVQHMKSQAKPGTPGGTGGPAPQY
T29 sequence (Q15349 whole entry): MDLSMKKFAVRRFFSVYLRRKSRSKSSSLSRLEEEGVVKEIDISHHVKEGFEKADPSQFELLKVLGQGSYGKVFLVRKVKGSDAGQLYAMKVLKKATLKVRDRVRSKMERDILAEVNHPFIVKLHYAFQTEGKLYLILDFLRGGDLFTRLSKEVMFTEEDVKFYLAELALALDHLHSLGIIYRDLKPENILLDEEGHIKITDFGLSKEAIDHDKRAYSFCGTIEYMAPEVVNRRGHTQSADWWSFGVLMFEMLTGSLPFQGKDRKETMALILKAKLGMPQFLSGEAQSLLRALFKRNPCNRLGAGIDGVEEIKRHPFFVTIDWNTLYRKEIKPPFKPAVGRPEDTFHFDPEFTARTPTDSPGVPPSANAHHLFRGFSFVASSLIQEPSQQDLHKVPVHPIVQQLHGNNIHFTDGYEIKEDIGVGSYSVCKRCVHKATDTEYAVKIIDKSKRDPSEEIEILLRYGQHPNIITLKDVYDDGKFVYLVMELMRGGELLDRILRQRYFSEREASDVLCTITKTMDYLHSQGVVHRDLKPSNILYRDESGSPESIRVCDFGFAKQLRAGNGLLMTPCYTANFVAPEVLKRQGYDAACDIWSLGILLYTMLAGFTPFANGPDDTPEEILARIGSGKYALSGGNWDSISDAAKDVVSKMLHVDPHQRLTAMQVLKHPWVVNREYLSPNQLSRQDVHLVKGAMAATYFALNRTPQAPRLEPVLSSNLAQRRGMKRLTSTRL
T14 sequence (Q7L7X3 whole entry): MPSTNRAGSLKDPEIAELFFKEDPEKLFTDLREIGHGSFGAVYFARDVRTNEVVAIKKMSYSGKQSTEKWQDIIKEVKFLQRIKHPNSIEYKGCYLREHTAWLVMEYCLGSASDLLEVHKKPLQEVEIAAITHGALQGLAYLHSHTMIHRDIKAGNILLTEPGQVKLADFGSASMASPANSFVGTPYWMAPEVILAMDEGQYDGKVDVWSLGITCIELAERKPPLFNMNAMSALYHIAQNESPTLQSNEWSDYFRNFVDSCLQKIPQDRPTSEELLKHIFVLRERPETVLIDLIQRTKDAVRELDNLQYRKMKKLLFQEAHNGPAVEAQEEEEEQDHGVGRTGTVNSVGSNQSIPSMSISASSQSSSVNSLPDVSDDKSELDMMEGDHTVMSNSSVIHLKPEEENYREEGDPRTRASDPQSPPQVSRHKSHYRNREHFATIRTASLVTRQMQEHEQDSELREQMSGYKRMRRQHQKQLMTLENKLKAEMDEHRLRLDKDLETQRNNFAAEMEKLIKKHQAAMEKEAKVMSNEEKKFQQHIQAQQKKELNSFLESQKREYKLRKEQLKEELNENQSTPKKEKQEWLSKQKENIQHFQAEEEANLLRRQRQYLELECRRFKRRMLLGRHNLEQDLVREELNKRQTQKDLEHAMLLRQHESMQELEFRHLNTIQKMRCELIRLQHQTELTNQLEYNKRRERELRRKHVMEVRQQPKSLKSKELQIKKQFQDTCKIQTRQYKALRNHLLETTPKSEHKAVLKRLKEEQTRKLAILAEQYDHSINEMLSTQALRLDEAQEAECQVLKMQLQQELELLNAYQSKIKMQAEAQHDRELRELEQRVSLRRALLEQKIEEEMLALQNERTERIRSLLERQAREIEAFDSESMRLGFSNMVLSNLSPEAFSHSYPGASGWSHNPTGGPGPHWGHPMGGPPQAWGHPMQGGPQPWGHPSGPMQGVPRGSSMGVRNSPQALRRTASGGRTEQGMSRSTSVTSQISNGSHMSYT
T32 sequence (P53350 whole entry): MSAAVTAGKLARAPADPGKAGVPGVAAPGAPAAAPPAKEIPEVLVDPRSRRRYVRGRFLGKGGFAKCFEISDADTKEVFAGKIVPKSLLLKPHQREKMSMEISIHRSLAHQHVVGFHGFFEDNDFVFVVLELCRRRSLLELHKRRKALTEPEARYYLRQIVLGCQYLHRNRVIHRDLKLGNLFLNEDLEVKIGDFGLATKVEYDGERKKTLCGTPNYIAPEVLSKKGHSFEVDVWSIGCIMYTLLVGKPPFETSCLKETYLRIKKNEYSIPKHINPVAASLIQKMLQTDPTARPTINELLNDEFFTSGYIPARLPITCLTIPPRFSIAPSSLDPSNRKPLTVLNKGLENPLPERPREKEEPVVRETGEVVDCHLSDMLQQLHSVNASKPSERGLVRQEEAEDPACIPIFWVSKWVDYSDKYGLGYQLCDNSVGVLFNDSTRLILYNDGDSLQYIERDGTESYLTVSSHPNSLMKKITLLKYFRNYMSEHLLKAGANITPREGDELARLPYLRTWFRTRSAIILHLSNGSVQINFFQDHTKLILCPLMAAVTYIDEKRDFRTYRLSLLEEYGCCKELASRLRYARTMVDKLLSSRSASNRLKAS
T12 sequence (P53779 whole entry): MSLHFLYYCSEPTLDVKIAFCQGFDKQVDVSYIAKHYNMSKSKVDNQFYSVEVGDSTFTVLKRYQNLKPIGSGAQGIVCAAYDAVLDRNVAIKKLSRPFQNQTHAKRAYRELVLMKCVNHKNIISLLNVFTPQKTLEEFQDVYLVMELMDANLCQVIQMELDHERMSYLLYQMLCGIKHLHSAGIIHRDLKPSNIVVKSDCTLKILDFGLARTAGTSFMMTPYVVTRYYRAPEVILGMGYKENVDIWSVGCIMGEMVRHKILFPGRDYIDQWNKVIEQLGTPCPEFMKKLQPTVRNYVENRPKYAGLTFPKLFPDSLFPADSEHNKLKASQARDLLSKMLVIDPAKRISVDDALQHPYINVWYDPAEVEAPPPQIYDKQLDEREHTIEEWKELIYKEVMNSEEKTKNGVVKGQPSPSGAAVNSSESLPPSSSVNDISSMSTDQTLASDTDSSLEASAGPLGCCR
T4 sequence (Q06418 41-890): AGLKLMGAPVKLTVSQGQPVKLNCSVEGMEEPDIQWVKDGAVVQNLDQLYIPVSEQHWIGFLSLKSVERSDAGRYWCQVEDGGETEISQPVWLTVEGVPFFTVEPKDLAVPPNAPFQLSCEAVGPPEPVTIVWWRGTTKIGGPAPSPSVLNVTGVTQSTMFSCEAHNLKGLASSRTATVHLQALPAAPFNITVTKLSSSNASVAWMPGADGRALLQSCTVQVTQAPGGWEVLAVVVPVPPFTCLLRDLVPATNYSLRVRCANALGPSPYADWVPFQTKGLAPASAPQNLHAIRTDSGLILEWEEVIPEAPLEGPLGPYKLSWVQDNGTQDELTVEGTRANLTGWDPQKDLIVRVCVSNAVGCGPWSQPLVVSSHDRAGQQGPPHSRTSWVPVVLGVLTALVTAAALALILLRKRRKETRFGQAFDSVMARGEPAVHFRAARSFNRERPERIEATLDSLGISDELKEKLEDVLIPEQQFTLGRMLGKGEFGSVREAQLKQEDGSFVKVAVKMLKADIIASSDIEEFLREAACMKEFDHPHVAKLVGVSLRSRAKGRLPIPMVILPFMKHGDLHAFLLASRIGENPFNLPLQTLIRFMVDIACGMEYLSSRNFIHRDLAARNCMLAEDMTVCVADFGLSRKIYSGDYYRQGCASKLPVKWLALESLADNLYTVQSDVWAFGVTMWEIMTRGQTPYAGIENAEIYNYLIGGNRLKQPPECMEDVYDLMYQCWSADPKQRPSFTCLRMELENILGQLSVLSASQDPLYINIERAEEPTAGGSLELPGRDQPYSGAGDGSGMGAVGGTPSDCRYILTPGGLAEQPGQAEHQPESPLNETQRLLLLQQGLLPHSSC

## COCCCc1cc(Cl)c(Cl)cc1NC(=O)Nc1c(C)c(-c2cnn(C)c2)nn1-c1ccccc1 [Example 15, 1-(4,5-dichloro-2-(3-methoxypropyl)phenyl)-3-(1′,4-dimethyl-1-phenyl-1H,1′H-[3,4′-bipyrazol]-5-yl)urea]
Tie2
  Avg POC: 160.5 POC
Txk
  Avg POC: 135.5 POC
Pim-3
  Avg POC: 105.5 POC
Rse
  Avg POC: 109 POC
EphA3
  Avg POC: 117 POC
CK1gamma2
  Avg POC: 120 POC
MKK7beta
  Avg POC: 140 POC
HIPK1
  Avg POC: 118 POC
EphB4
  Avg POC: 132.5 POC
TBK1
  Avg POC: 110 POC
p38alpha
  Avg POC: 100.5 POC
JNK3
  Avg POC: 104 POC
MAPKAP-K5
  Avg POC: 92 POC
TAO1
  Avg POC: 113 POC
FGFR1
  Avg POC: 111.5 POC
MST3
  Avg POC: 137 POC
TLK2
  Avg POC: 101 POC
PASK
  Avg POC: 188 POC
PKCepsilon
  Avg POC: 97 POC
PKCiota
  Avg POC: 68 POC
IRAK4
  Avg POC: 124.5 POC
Fgr
  Avg POC: 118 POC
DAPK3
  Avg POC: 106 POC
WNK3
  Avg POC: 108.5 POC
CDK7/cyclinH/MAT1
  Avg POC: 106 POC
JNK2alpha2
  Avg POC: 92 POC
Flt3
  Avg POC: 81 POC
CAMK1d
  Avg POC: 103 POC
Rsk3
  Avg POC: 104 POC
PTK6
  Avg POC: 124 POC
Met
  Avg POC: 110.5 POC
Plk1
  Avg POC: 89.5 POC
Lyn
  Avg POC: 84.5 POC
PRKG1alpha
  Avg POC: 113.5 POC
Hck
  Avg POC: 89 POC
NEK6
  Avg POC: 111.5 POC
EphA5
  Avg POC: 115.5 POC
PrKX
  Avg POC: 134 POC
CK1delta
  Avg POC: 111.5 POC
PKCbetaII
  Avg POC: 99 POC
eEF-2K
  Avg POC: 181 POC
